SMILES strings stand for the structures. Read-outs that look alike come from different tables or passages of the source.

The test system of test [1] is NCI-H226 cell line. Put plainly: NCI in vitro screen, NCI-H226. The class given is cell-based. Particulars: Homo sapiens, range over four compounds, read-out: log TGI. An excerpt: Compounds 41-51 and 53-68 were submitted to NCI and assayed in the NCI's in vitro disease-oriented antitumor screen, which involves determination of a test compound's effects on the growth of approximately 60 human tumor cell lines. See, M. R. Boyd, et al. In Cancer: Principles and Practice of Oncology Updates; De Vita, V. T., Hellman, S., Rosenberg, S. A., Eds; J. B. Lippincoft: Philadelphia, pp 1-12 (1989); and A. Monks, et al. J. Natl. Cancer Inst. 83:757 (1991). These lines include leukemia, non-small cell lung, colon, central nervous system (CNS), melanoma, ovarian, renal, prostate, and breast cancers.

Test [2] deals with 786-0 renal cancer cell line. Put plainly: NCI in vitro screen, renal cancer 786-0. The class given is cell-based. The following applies: Homo sapiens, read-out: Cytotoxicity log GI50 (converted).
In test [3] the test system is PC-3 prostate cancer cell line. Description: NCI in vitro screen, prostate cancer PC-3. The class given is cell-based. Particulars: Homo sapiens, read-out: Cytotoxicity log GI50 (converted).
Test [4] relates to HL-60(TB) leukemia cell line. Description: cells. The class given is cell-based. Particulars: Homo sapiens; for IC (TGI): HL-60, H-60 cell line, range over four compounds, read-out: log TGI; for GI50: HL-60(TB), read-out: Cytotoxicity log GI50 (converted).
For test [5], the system named is NCI's 60 human tumor cell line. Put plainly: NCI 60 human tumor cell line in vitro screen (average / whole panel). The class given is cell-based. Particulars: calculated from all cell lines tested, molar concentrations, read-out: average log GI50 (converted).
Test [6] concerns MDA-N breast cancer cell line. Description: NCI in vitro screen, breast cancer MDA-N. The class given is cell-based. The following applies: Homo sapiens; for IC (TGI): range over four compounds and two cell lines, read-out: log TGI; for GI50: read-out: Cytotoxicity log GI50 (converted).
Test [7] concerns U-251 CNS cancer cell line. Put plainly: NCI in vitro screen, CNS cancer U-251. The class given is cell-based. The following applies: Homo sapiens, read-out: Cytotoxicity log GI50 (converted).
The subject of test [8] is MDA-MB-435 breast cancer cell line. Description: NCI in vitro screen, breast cancer MDA-MB-435. The following applies: Homo sapiens; for IC (TGI): range over four compounds and two cell lines, read-out: log TGI; for GI50: read-out: Cytotoxicity log GI50 (converted). The class given is cell-based.
The test system of test [9] is SK-MEL-5 melanoma cell line. Put plainly: NCI in vitro screen, melanoma SK-MEL-5. The class given is cell-based. The following applies: Homo sapiens, read-out: Cytotoxicity log GI50 (converted).
Test [10] relates to NCI-H460 non-small cell lung cancer cell line. Description: NCI in vitro screen, non-small cell lung cancer NCI-H460. The class given is cell-based. The following applies: Homo sapiens, read-out: Cytotoxicity log GI50 (converted).
In test [11] the test system is SF-295 CNS cancer cell line. Description: NCI in vitro screen, CNS cancer SF-295. The following applies: Homo sapiens, read-out: Cytotoxicity log GI50 (converted). The class given is cell-based.
Test [12] has as its system HCT-116 colon cancer cell line. Description: NCI in vitro screen, colon cancer HCT-116. The class given is cell-based. Particulars: Homo sapiens; HCT-1.16 (head); HCT-116 (footnote); read-out: Cytotoxicity log GI50 (converted).
Test [13] deals with OVCAR-3 ovarian cancer cell line. Description: NCI in vitro screen, ovarian cancer OVCAR-3. The following applies: Homo sapiens, read-out: Cytotoxicity log GI50 (converted). The class given is cell-based.
In test [14] the test system is tubulin. Put plainly: Tubulin polymerization assay. The class given is biochemical, bovine. The protocol: Electrophoretically homogeneous bovine brain tubulin was purified as described in E. Hamel, et al. Biochemistry 23:4173 (1984).
The tubulin polymerization assay was performed as described in S. Kuo, et al. J. Med. Chem. 36:1146 (1993); L. Li, et al. J. Med. Chem. 37:1126 (1994); and L. Li J. Med. Chem. 37:3400 (1994). In brief, tubulin at 1.2 mg/ml (12 μM) was preincubated for 15 min at 26° C. in a 0.24-ml volume of 0.8 M monosodium glutamate (pH 6.6 with NaOH in a 2 M stock solution) with varying drug concentrations. The drug stock solutions were in DMSO, and the final solvent concentration was 4 % (v/v). All concentrations are in terms of the final reaction volume (0.25 ml). The reaction mixtures were chilled on ice, and 10 μl of 10 mM GTP was added to each reaction mixture. Samples were transferred to cuvettes held at 0° C. by an electronic temperature controller in Gilford spectrophotometers. Baselines were established at 350 nm, and polymerization initiated by a temperature jump to 26° C. The jump took about 50 sec to complete. After 20 min, turbidity readings were recorded, and the temperature controller was set to 0C. When depolymerization was complete, turbidity readings were again recorded. […] IC50 values were obtained graphically from inhibition of polymerization by different drug concentrations.
Electrophoretically, homogeneous bovine brain tubulin was purified as described in Example 6.
The tubulin polymerization assay was performed as described in Example 6.

The mark [15] stands for this setting: Tables 1 and 4, read-out: ITP HC50 ± SD (Inhibition of Tubulin Polymerization).
Setting [16] is: read-out: IC50, inhibition of tubulin polymerization.

Broadly, the GI50 is the concentration at which growth is held to half of that of the control. Take `COc1cccc(-c2cc(=O)c3cccnc3[nH]2)c1` [Compound 44]: the IC (TGI) in [1] was in the range of 75.9 to 692 nM; in test [4] it was 39.8 to 64.6 nM; in test [6] it was 21.4 to 39.8 nM; in test [8] it was 21.4 to 39.8 nM. For the same molecule, the GI50 in [2] is 61.7 nM; in test [3], 93.3 nM; in test [4], 16.2 nM; in [5], 135 nM; in test [6] it was < 10 nM; in test [7] it was 55 nM. In addition, the concentration for 50% growth inhibition (GI50) in test [8] is < 10 nM; in test [9], 53.7 nM; in test [10], 91.2 nM; in test [11], 52.5 nM; in test [12], 36.3 nM; in test [13] it was 55 nM.

As to `COc1cccc(-c2cc(=O)c3cc(C)cnc3[nH]2)c1` [Compound 46], the IC (TGI) in [1] lay in the range of 75.9 to 692 nM; in test [4], 39.8 to 64.6 nM; in test [6], 21.4 to 39.8 nM; in test [8] it was 21.4 to 39.8 nM. Further, the GI50 was 37.2 nM in test [2]; 42.7 nM in test [3]; 19.1 nM in test [4]; 95.5 nM in test [5]; < 10 nM in test [6]; 44.7 nM in test [7]. In addition, the GI50 in test [8] was < 10 nM; in [9] it was 25.7 nM; in test [10], 43.7 nM; in test [11], 37.2 nM; in test [12], 22.4 nM; in test [13], 41.7 nM.

`COc1cccc(-c2cc(=O)c3ccc(C)nc3[nH]2)c1` [Compound 47]: the IC (TGI) in test [1] was 75.9 to 692 nM; in [4] it was 39.8 to 64.6 nM; in [6], 21.4 to 39.8 nM; in [8], 21.4 to 39.8 nM. The GI50 is 53.7 nM in test [2]; 33.1 nM in [3]; 18.2 nM in test [4]; 57.5 nM in test [5]; 11 nM in test [6]; 53.7 nM in test [7]. For the same molecule, the GI50 was < 10 nM in test [8]; 33.9 nM in [9]; 43.7 nM in test [10]; 30.2 nM in [11]; 46.8 nM in test [12]; 22.4 nM in test [13].

Consider `COc1cccc(-c2cc(=O)c3cc(Cl)cnc3[nH]2)c1` [Compound 49], for which the IC (TGI) in test [1] was in the range of 75.9 to 692 nM; in test [4] it was 39.8 to 64.6 nM; in [6], 21.4 to 39.8 nM; in [8] it was 21.4 to 39.8 nM. Further, the GI50 is 427 nM in [2]; 138 nM in [3]; 26.9 nM in test [4]; 97.7 nM in test [5]; 31.6 nM in [6]; 200 nM in test [7]. For the same molecule, the concentration for 50% growth inhibition (GI50) was 32.4 nM in test [8]; 126 nM in test [9]; 63.1 nM in [10]; 60.3 nM in test [11]; 120 nM in test [12]; 490 nM in [13].

For `O=C1CC(c2ccc(F)cc2)=Nc2ncc(Cl)cc21` [Compound 61, 2-(4'-Fluorophenyl)-6-chloro-1,8-naphthyridin-4-one], the GI50 in [2] is 32400 nM; in test [3], 21900 nM; in test [4], 3890 nM; in test [5], 21900 nM; in [6], 2950 nM; in [7], 29500 nM. Moreover, the 50% growth inhibitory concentration (GI50) is 2570 nM in test [8]; 6610 nM in test [9]; 30200 nM in [10]; 21400 nM in test [11]; 17000 nM in test [12]; 17400 nM in [13]. The figures for the IC50 in test [14] (setting [15]) and in test [14] (setting [16]) were 16000 ± 3000 nM and 11000 to 32000 nM, respectively.

For `O=C1CC(c2ccc(Cl)cc2)=Nc2ncccc21` [Compound 62, 2-(4'-Chlorophenyl)-1,8-naphthyridin-4-one], the concentration for 50% growth inhibition (GI50) in test [2] is 33900 nM; in [3] it was 47900 nM; in [4], 16600 nM; in test [5], 38900 nM; in test [6] it was 8320 nM; in test [7], 39800 nM. Also, the concentration for 50% growth inhibition (GI50) in test [8] was 5890 nM; in [9] it was 28800 nM; in test [10], 38000 nM; in [11] it was 40700 nM; in test [12], 32400 nM; in [13] it was 23400 nM. Further, the IC50 in [14] (setting [15]) is 22000 ± 100 nM; in test [14] (setting [16]), 11000 to 32000 nM.

Take `Cc1ccnc2c1C(=O)CC(c1ccc(Cl)cc1)=N2` [Compound 63, 2-(4'-Chlorophenyl)-5-methyl-1,8-naphthyridin-4-one]: the GI50 is 3980 nM in test [2]; 2880 nM in test [3]; 1780 nM in [4]; 5130 nM in test [5]; 1320 nM in test [6]; 4570 nM in test [7]. Also, the GI50 in test [8] was 759 nM; in test [9], 3470 nM; in test [10], 3720 nM; in test [11], 5370 nM; in test [12], 3720 nM; in [13], 3160 nM. The IC50 is 4800 ± 1400 nM in test [14] (setting [15]) and 1500 to 9800 nM in [14] (setting [16]).

Regarding `Cc1cnc2c(c1)C(=O)CC(c1ccc(Cl)cc1)=N2` [Compound 64, 2-(4'-Chlorophenyl)-6-methyl-1,8-naphthyridin-4-one], the GI50 in test [2] is 6310 nM; in [3] it was 1150 nM; in test [4], 2240 nM; in test [5], 3720 nM; in test [6] it was 562 nM; in [7], 3020 nM. The concentration for 50% growth inhibition (GI50) in test [8] is 603 nM; in [9], 2190 nM; in [10] it was 3890 nM; in test [11], 2400 nM; in [12] it was 2820 nM; in test [13], 2240 nM. Further, the IC50 was 2000 ± 10 nM in test [14] (setting [15]) and 1500 to 9800 nM in test [14] (setting [16]).

Regarding `Cc1ccc2c(n1)N=C(c1ccc(Cl)cc1)CC2=O` [Compound 65, 2-(4'-Chlorophenyl)-7-methyl-1,8-naphthyridin-4-one], the GI50 in [2] is 6310 nM; in test [3], 1660 nM; in test [4], 2950 nM; in test [5] it was 4900 nM; in test [6], 1000 nM; in [7] it was 4790 nM. The GI50 in [8] was 912 nM; in test [9], 4370 nM; in [10], 4470 nM; in [11], 4570 nM; in test [12], 3310 nM; in test [13], 2570 nM. In addition, the figures for the IC50 in [14] (setting [15]) and in [14] (setting [16]) were 11000 ± 700 nM and 11000 to 32000 nM, respectively.

Regarding `Cc1cc(C)c2c(n1)N=C(c1ccc(Cl)cc1)CC2=O` [Compound 66, 2-(4'-Chlorophenyl)-5,7-dimethyl-1 ,8-naphthyridin-4-one], the GI50 in [2] is 21400 nM; in test [3], 6310 nM; in test [4], 25100 nM; in test [5], 19500 nM; in test [6] it was 3630 nM; in test [7], 30200 nM. In addition, the GI50 in test [8] is 4070 nM; in test [9], 14100 nM; in test [10], 22400 nM; in test [11] it was 16200 nM; in [12], 14800 nM; in test [13], 18200 nM. Further, the IC50 in test [14] (setting [15]) is 32000 ± 8000 nM; in test [14] (setting [16]) it was 11000 to 32000 nM.

The values are drawn from US6229016A, “Method for treating tumors using 2-aryl-naphthyridin-4-ones” (priority 2000, dated 2001).
